# Columns and labels:
# nitric oxide = test: Nitric oxide inhibition assay, sodium nitroprusside method; conditions: Griess reagent, vs control
# Wistar rats [1] = test: Cotton pellet granuloma (sub acute model); assay type: in vivo, rat; conditions: BN compounds 100 mg/kg, Indomethacin 5 mg/kg, daily for 7 days
# Protocol: Wistar rats weighing between 180-220 gms were anaesthetized with ether. The skin at their back was shaved and disinfected with 70% alcohol according to D'Arcy et al., 1960). An incision was made in the lumbar region. Using a blunt forceps subcutaneous tunnel was formed and a sterilized cotton pellet was placed on both sides in scapular region. Standard 20 mg cotton pellets was weighed and sterilized for the study. Rats were grouped into 5 groups of 6 animals each. […] On 8th day rats in all groups were sacrificed with anesthetic ether. Pellets were removed and kept overnight for incubation at 37° C. Then pellets were dried at 60° C. until they reach constant weight. The wet weight of pellets was also recorded after sacrificing. The average weights of pellets of control group and other treated groups were calculated. The percent change of granuloma weight was calculated for all the test groups comparing with control group.
# TNF-α = test: In vitro TNF-α estimation in LPS treated RAW 264.7 macrophages (ELISA); assay type: cell-based, mouse
# Protocol: Cell Culture and Treatment: The RAW 264.7 (mouse macrophages, national center for cellular sciences) cells were grown in plastic T-25 culture flask in Dulbeccos modified eagles medium (DMEM) without phenol red supplemented with 10% heat activated serum (heating at 57° C. for 30 minutes, 100 μg per ml penicillin, 200 μg per ml streptomycin, 2 mmol L-glutamine, 1% antibiotic/Anti mycotic solution (GIBCO/SRL) under 5% co2 with 85% relative humidity at 37° C. After 2-3 days cells were removed from the culture flask by tripsinizing the cells with Trypsin EDTA solution. Cell count and viability was performed using a standard Trypan blue dye exclusion method. The cell concentration was adjusted to 1×10^5 cells per ml in each well with the same media in the 12 well plates. After 24 hrs incubation the media was removed from each well replaced with a fresh one containing different concentrations (50 μg, 25 μg, 12.5 μg) of the synthetic compounds BN-4, BN-14 and BN-16 along with 10 μg/ml LPS, where as normal control (PBS) and positive controls (Dexa, Roli) LPS (10 μg/ml), were added. 200 μl of media from each well was collected at 6 hrs for the estimation of TNF-α and after 24 hrs for Nitric Oxide respectively. The adherent cells, which remained after removing the media was subjected to […] for determining the cytotoxicity of compounds at selected concentrations
# Measurement of TNF-α: TNF-α was assayed by ELISA kit supplied by R&D systems. A volume of 100 μl of 0.8 μg per ml, goat anti mouse TNF-a in PBS was coated and incubated overnight at room temperature. Plates were washed 3 times with PBS/0.05% Tween 20 and blocked by the addition of 1% BSA in PBS at room temperature for 2 hrs. Plates were washed 3 times again with same buffer and 100 μl of samples and standards (Recombinant mouse TNF-α with 1% BSA in PBS) of different concentrations were added in triplicates and incubated for 2 hrs at RT. After washing 100 μl of goat anti mouse TNF-α conjugated with HRP were added and incubated for 2 hrs at RT. Then 100 μl of TMB substrate ([…] with H2O2) was added to all wells. After 20 min stop solution was added to all the wells, and measured the optical density at 450 nm. TNF-α concentration was calculated from standard curve by regression analysis.
# Wistar rats [2] = test: Freund's complete adjuvant (FCA) induced arthritis; assay type: in vivo, rat; conditions: 17th day and 21st day, 100 mg/kg, vs arthritic control
# Wistar rats [3] = test: Antidiabetic activity by starch loaded model; assay type: in vivo, rat; conditions: for % Increase in glucose, 30 min / Blood glucose level, 30 min: 30 min after starch; for % Increase in glucose, 30 min / Blood glucose level, 30 min / % Increase in glucose, 60 min / Blood glucose level, 60 min / % Increase in glucose, 90 min / Blood glucose level, 90 min / % Increase in glucose, 120 min / Blood glucose level, 120 min / Blood glucose level, 0 min: test compounds 100 mg/kg, Acarbose 10 mg/kg oral; for Blood glucose level, 30 min / Blood glucose level, 60 min / Blood glucose level, 90 min / Blood glucose level, 120 min / Blood glucose level, 0 min: in mg/dL (unit assumed); for % Increase in glucose, 60 min / Blood glucose level, 60 min: 60 min after starch; for % Increase in glucose, 90 min / Blood glucose level, 90 min: 90 min after starch; for % Increase in glucose, 120 min / Blood glucose level, 120 min: 120 min after starch; for Blood glucose level, 0 min: basal, prior to dosing
# From the text: Experimental Animals—Wistar rats of either sex were used for the present study. Animals selected for use in the study were of uniform age and body weight. A minimum of 40 rats, from which eventually 20 rats were selected. Their body weights were in the range of 150-180 gm. The health status of the animals was ascertained by a veterinary surgeon. […] Animals were acclimatized for at least two weeks prior to start of the study. The animals were provided with pellet diet manufactured by NIN, HYDERABAD, India and drinking water adlibitum.
# Compound Preparation The required quantity of the synthetic compounds were weighed and made suspension with gum acacia (2%). The test compounds were administered to all rats by per oral route. Acarbose suspension was also prepared in gum acasia suspension and given by oral route.
# Antidiabetic activity by Starch model: The method of Rao et al., 2009;Tiwari et al was employed. Animals were fasted over night (12 hrs). Basal blood glucose levels were estimated for all the animals prior to dosing in test and standard groups. This was designated as “0” min reading. […] After test compounds administration animals in all three groups received Starch aqueous solution (2 gm/kg body weight). Blood glucose levels were monitored at 30, 60, 90 and 120 min after the administration of Starch in all the three groups. The percentage of increase in, blood glucose levels was calculated with respect to the control group at each time point.
# rats = test: Ulcerogenic assay; assay type: in vivo, rat; conditions: BN compounds 200 mg/kg oral, Indomethacin 30 mg/kg; for Ulcer Score: arbitrary scale 0 (no lesions) to 4 (mucosa full of lesions); for Ulcer Incidence: fasted rats, six hours after dosing, n=4
# Protocol: The method of Cashin et al., (1979) was employed. Food was withheld from the animals for 18 hours prior to the experiment. The fasted animals (n=4) received the compounds BN-4, BN-14 and BN-16 as gum acacia suspension by oral route at the dose of 100,200 mg/kg. Indomethacin control animals received the drug at the dose of 30 mg/kg. Six hours later, rats were killed and the stomachs removed and open along the lesser curvature. The opened stomach was washed with normal saline and observed for ulceration. Lesions on the mucosal surface was scored according to arbitrary scale: 0 No lesion; 0.5=hyperemia; 1=one or two lesions; 2=severe lesions; 3=very severe lesions; 4=Mucosal full of lesions (Bani et al., 2000). […] But indomethacin group animals show severe ulceration in stomach portion. More importantly, gastric ulcer, which is a common side effect of NSAIDS, was totally absent in stomach of compound treated rat group. Since enhanced leukotrine production plays a role in development of gastrointestinal damage from cyclooxygenase inhibition by NSAIDS (Rainsford et al., 1993; Gyomber et al., 1996) and all the compounds have shown potent inhibitory action on 5-LOX inhibition (Arachidonic induced paw edema model) along with cox inhibition (Carrageenan induced paw edema model), the gastric ulcer sparing effect of compounds may be partly due to their effect on 5-LOX inhibition.
# [4] = 50 μg/ml, 25 μg/ml, 12.5 μg/ml with LPS 10 μg/ml, 6 hrs
SMILES,NO release in Sodium Nitroprusside method (nitric oxide),% Inhibition (granuloma dry weight) (Wistar rats [1]) [%],% Inhibition (granuloma wet weight) (Wistar rats [1]) [%],Granuloma Dry Weight (Wistar rats [1]) [mg],Granuloma Wet Weight (Wistar rats [1]) [mg],Inhibition of TNF-a production (TNF-α; 12.5 μg/ml with LPS),Inhibition of TNF-a production (TNF-α; [4]),Arthritic scoring (Wistar rats [2]),"Reduction in percentage increase in blood glucose levels (Wistar rats [3]; 100 mg/kg oral, starch 2 gm/kg, 30-120 min, vs diabetic control)","% Increase in glucose, 30 min (Wistar rats [3]) [%]","Blood glucose level, 30 min (Wistar rats [3])","% Increase in glucose, 60 min (Wistar rats [3]) [%]","Blood glucose level, 60 min (Wistar rats [3])","% Increase in glucose, 90 min (Wistar rats [3]) [%]","Blood glucose level, 90 min (Wistar rats [3])","% Increase in glucose, 120 min (Wistar rats [3]) [%]","Blood glucose level, 120 min (Wistar rats [3])","Blood glucose level, 0 min (Wistar rats [3]; starch 2 gm/kg)",Ulcer Score (rats),Ulcer Incidence (rats)
"Cc1sc2nc3c(c(N)c2c1C)CCCCC3 [BN-4, 2,3-dimethyl-6,7,8,9-tetrahydro-5H-cyclohepta[b]thieno[3,2-e]pyridin-4-amine]",significantly inhibited,28.42 ± 3.09,22.23 ± 1.20,83.33 ± 3.59,366.08 ± 3.50,not shown inhibition,good inhibition,significantly reduced,,,,,,,,,,,,
"Nc1c2c(nc3sc4c(c13)CCC4)CCC2 [BN-13, 1,2,3,6,7,8-hexahydrocyclopenta [b]cyclopenta[4,5] thieno[3,2-e]pyridin-9-amine]",,,,,,,,,greatest inhibitory activity,32.75,108.37,35.89,110.82,30.53,106.50,30.27,106.30,81.67,,
"Nc1c2c(nc3sc4c(c13)CCC4)CCCC2 [BN-14, 2,3,6,7,8,9-Hexahydro-1H-cyclopenta[4,5]thieno[2,3-b]quinolin-10-amine]",significantly inhibited,25.48 ± 1.89,20.21 ± 0.58,86.75 ± 2.20,374.42 ± 4.69,,good inhibition,significantly reduced,,37.65,103.83,36.02,102.80,45.00,109.33,32.21,99.83,75.5,0.37 ± 0.10,¼
"CC1CCc2c(nc3sc4c(c3c2N)CCC4)C1 (stereo not drawn) [BN-15, 7-Methyl-2,3,6,7,8,9-hexahydro-1H-cyclopenta[4,5]thieno[2,3-b]quinolin-10-amine]",,,,,,,,,,42.13,115.50,51.64,123.03,39.76,113.75,42.80,116.05,81.45,,
"Nc1c2c(nc3sc4c(c13)CCC4)CCCCC2 [BN-16, 1,2,3,6,7,8,9,10-Octahydrocyclohepta[b]cyclopenta[4,5]thieno[3,2-e]pyridine-11-amine]",significantly inhibited,27.70 ± 1.82,23.09 ± 1.59,84.16 ± 2.11,365.08 ± 6.39,,good inhibition,significantly reduced,,,,,,,,,,,0.25 ± 0.12,0/4
"Nc1c2c(nc3sc4c(c13)CCC4)CCCCCC2 [BN-17, 2,3,6,7,8,9,10,11-Octahydro-1H-cycloocta [b]cyclopenta[4,5]thieno[3,2-e]pyridin-12-amine]",,,,,,,,,,51.74,124.60,52.35,125.13,49.67,123.13,49.64,122.80,82.40,,
"COc1ccc2c(c1)c(CC(=O)O)c(C)n2C(=O)c1ccc(Cl)cc1 [Indomethacin, reference compound]",,32.78 ± 1.88,26.93 ± 2.24,78.25 ± 2.19,338.01 ± 10.38,,,,,,,,,,,,,,2.25 ± 0.41,4/4
